# Data as given in patent publication US20040094749A1, “Method for producing a phenothiazine granulate with improved properties” (priority 2000, published 2004).
# Test: Solubility behavior of solid phenothiazine in acrylic acid (method 1b, NIR probe)
# Conditions: room temperature
# Experimental: Method for determining the solubility behavior of solid phenothiazine of different forms and particle size distributions
# Thereafter, at time intervals of from 1 to 5 mm, either a.) a sample of the dispersion was taken and filtered and the phenothiazine content was determined by UV spectroscopy or b.) the phenothiazine content was determined directly by means of an NIR probe which dipped into the dispersion of phenothiazine in acrylic acid (NIRVIS universal spectrometer from Buchi having a transmission probe with 1.5 mm slit width. In order to prevent disturbances by solid particles in the measuring slit, this was closed by means of a metal screen having a mesh size of 0.18 mm).
# For this purpose, in each case 1.33 g of the respective sample were added to 66 g of acrylic acid and measurements were carried out at intervals of one minute (Graph. 1).
compound,measurement,value
"c1ccc2c(c1)Nc1ccccc1S2 [phenothiazine, 2,3,5,6-dibenzo-1,4-triazine]",maximum solubility of phenothiazine in acrylic acid,about 2.8 % (m/m)
